Results as given in patent publication US10828315B2 (Madrigal Pharmaceuticals, Inc., priority 2013, dated 2020).
Values after ≈ are worked out from the molar mass of the structure shown.

Tests used:
Assay type in all cases: physicochemical
[1] = Physical appearance of SDC-TRAP-0063 formulations and infusion solutions with different diluents and carbonate buffers
Description: First, a stock solution of SDC-TRAP-0063 was prepared in DMSO at 22 mg/mL, then the required amount of tween 80 was added and mixed well.
The above formulation containing SDC-TRAP-0063 was diluted using either D5W, D5W (pH 10.5, adjusted with 4.55 mM NaOH) or carbonate buffer, pH 10) (final drug concentration.: 1 mg/mL SDC-TRAP-0063, 1.8% v/v Tween 80, 5% v/v DMSO). The physical observations on these solutions were noted before and filtration through 0.22μ PES filter and were further observed for 3 hr. Refer to the table below for summary of observations. Note: Carbonate buffer, pH 10 was prepared by mixing 0.1M sodium carbonate (27.5 mL) and 0.1M sodium bicarbonate (22.5 mL) and qs 200 mL with DIW. The total Na content of carbonate buffer was 39 mM.
A stock solution of SDC-TRAP-0063 was prepared in either DMSO or PEG-300. To prepare formulations containing DMSO and tween 80, required amount of tween 80 added to the stock of DMSO (containing SDC-TRAP-0063). The formulations were then was diluted with carbonate buffer, pH 10 (composition: add and mix 0.1M sodium carbonate (27.5 mL) and 0.1M sodium bicarbonate (22.5 mL) and qs 200 mL with DIW). The samples (prepared in glass vial) were mixed well and observed for physical appearance while stirring on a magnetic stirring plate at ambient. (Note-appropriate amounts of SDC-TRAP-0063, tween 80, DMSO and PEG-300, as applicable were used to prepare the solutions at the desired concentrations and drug concentrations at 1 mg/mL through 5 mg/mL as shown).
Carbonate buffers of different pH (pH 9-10) and ionic strengths (with higher (>2) Na contents that SDC-TRAP-0063 on molar basis) were prepared and used for diluting the DMSO/tween 80 formulation loaded with SDC-TRAP-0063 (as described in earlier section 3). The final concentrations of DMSO and tween 80 in the diluted carbonate buffer were 5% v/v and 1.8% v/v respectively. The drug concentration was kept constant (5 mg/mL) for all diluted samples.

[2] = Solubility of SDC-TRAP-0063 (ganetespib placebo formulation, PEG-300); conditions: PEG-300, organic solvent or mixture, thermodynamic from solid; Lot 8; estimated; read-out: equilibrium solubility in PEG-300
[3] = Chemical properties of SDC-TRAP-0063
From the text: SDC-TRAP-0063 is a light yellow solid having the following chemical properties: […]

SMILES: CCc1c2c(nc3ccc(OC(=O)N4CCC(CCn5ccc6cc(-n7c(O)nnc7-c7cc(C(C)C)c(O)cc7O)ccc65)CC4)cc13)-c1cc3c(c(=O)n1C2)COC(=O)[C@]3(O)CC [SDC-TRAP-0063, 4,11-diethyl-4-hydroxy-3,14-dioxo-3,4,12,14-tetrahydro-1H-pyrano[3′,4′:6,7]indolizino[1,2-b]quinolin-9-yl 4-(2-(5-(3-(2,4-dihydroxy-5-isopropylphenyl)-5-hydroxy-4H-1,2,4-triazol-4-yl)-1H-indol-1-yl)ethyl)piperidine-1-carboxylate]
- Observations (physical appearance) ([1]; 5% v/v DMSO, carbonate buffer pH 10 (39 mM Na), 2 mg/mL, 30 min): Cloudy
- Observations (physical appearance) ([1]; 5% v/v DMSO, carbonate buffer pH 10 (39 mM Na), 2 mg/mL, 1 h): Cloudy
- Observations (physical appearance) ([1]; 5% v/v DMSO, carbonate buffer pH 10 (39 mM Na), 2 mg/mL, 6 h): Cloudy
- Observations (physical appearance) ([1]; 5% v/v DMSO, carbonate buffer pH 10 (39 mM Na), 2 mg/mL, Initial): Cloudy
- Observations (physical appearance) ([1]; 5% v/v DMSO, carbonate buffer pH 10 (39 mM Na), 2 mg/mL, Overnight): Opaque (less cloudy than at 6 h)
- Observations (physical appearance) ([1]; 5% v/v DMSO, carbonate buffer pH 10 (39 mM Na), 3 mg/mL, 30 min): Cloudy
- Observations (physical appearance) ([1]; 5% v/v DMSO, carbonate buffer pH 10 (39 mM Na), 3 mg/mL, 1 h): Cloudy
- Observations (physical appearance) ([1]; 5% v/v DMSO, carbonate buffer pH 10 (39 mM Na), 3 mg/mL, 6 h): Cloudy
- Observations (physical appearance) ([1]; 5% v/v DMSO, carbonate buffer pH 10 (39 mM Na), 3 mg/mL, Initial): Cloudy
- Observations (physical appearance) ([1]; 5% v/v DMSO, carbonate buffer pH 10 (39 mM Na), 3 mg/mL, Overnight): Cloudy
- Observations (physical appearance) ([1]; 5% v/v DMSO, carbonate buffer pH 10 (39 mM Na), 4 mg/mL, 30 min): Cloudy
- Observations (physical appearance) ([1]; 5% v/v DMSO, carbonate buffer pH 10 (39 mM Na), 4 mg/mL, 1 h): Cloudy
- Observations (physical appearance) ([1]; 5% v/v DMSO, carbonate buffer pH 10 (39 mM Na), 4 mg/mL, 6 h): Cloudy
- Observations (physical appearance) ([1]; 5% v/v DMSO, carbonate buffer pH 10 (39 mM Na), 4 mg/mL, Initial): Cloudy
- Observations (physical appearance) ([1]; 5% v/v DMSO, carbonate buffer pH 10 (39 mM Na), 4 mg/mL, Overnight): Cloudy
- Observations (physical appearance) ([1]; 5% v/v DMSO, carbonate buffer pH 10 (39 mM Na), 5 mg/mL, 30 min): Cloudy
- Observations (physical appearance) ([1]; 5% v/v DMSO, carbonate buffer pH 10 (39 mM Na), 5 mg/mL, 1 h): Cloudy
- Observations (physical appearance) ([1]; 5% v/v DMSO, carbonate buffer pH 10 (39 mM Na), 5 mg/mL, 6 h): Cloudy
- Observations (physical appearance) ([1]; 5% v/v DMSO, carbonate buffer pH 10 (39 mM Na), 5 mg/mL, Initial): Cloudy
- Observations (physical appearance) ([1]; 5% v/v DMSO, carbonate buffer pH 10 (39 mM Na), 5 mg/mL, Overnight): Cloudy
- physical appearance after dilution with carbonate buffer, pH 10 ([1]; DMSO alone 5% v/v, 2 mg/mL through 5 mg/mL): stayed cloudy for more than 24 h
- physical appearance after dilution with carbonate buffer, pH 10 ([1]; PEG-300 formulations, 1 mg/mL and 2 mg/mL): appeared clear at 30 mm and 1 hr of stirring respectively
- physical appearance after dilution with carbonate buffer, pH 10 ([1]; PEG-300 formulations, 3 mg/mL, 4 mg/mL and 5 mg/mL): took longer and were clear next day
- Observations (physical appearance) ([1]; […] v/v PEG-300, carbonate buffer pH 10 (39 mM Na), 1 mg/mL, 30 min): clear,
- Observations (physical appearance) ([1]; […] v/v PEG-300, carbonate buffer pH 10 (39 mM Na), 1 mg/mL, 1 h): clear, yellow
- Observations (physical appearance) ([1]; […] v/v PEG-300, carbonate buffer pH 10 (39 mM Na), 1 mg/mL, 2 h): clear, yellow
- Observations (physical appearance) ([1]; […] v/v PEG-300, carbonate buffer pH 10 (39 mM Na), 1 mg/mL, Initial): slightly
- Observations (physical appearance) ([1]; […] v/v PEG-300, carbonate buffer pH 10 (39 mM Na), 1 mg/mL, Overnight): clear, yellow
- Observations (physical appearance) ([1]; […] v/v PEG-300, carbonate buffer pH 10 (39 mM Na), 2 mg/mL, 30 min): Translucent
- Observations (physical appearance) ([1]; […] v/v PEG-300, carbonate buffer pH 10 (39 mM Na), 2 mg/mL, 1 h): clear, yellow
- Observations (physical appearance) ([1]; […] v/v PEG-300, carbonate buffer pH 10 (39 mM Na), 2 mg/mL, 2 h): clear, yellow
- Observations (physical appearance) ([1]; […] v/v PEG-300, carbonate buffer pH 10 (39 mM Na), 2 mg/mL, Initial): cloudy
- Observations (physical appearance) ([1]; […] v/v PEG-300, carbonate buffer pH 10 (39 mM Na), 2 mg/mL, Overnight): clear, yellow
- Observations (physical appearance) ([1]; […] v/v PEG-300, carbonate buffer pH 10 (39 mM Na), 3 mg/mL, 30 min): cloudy
- Observations (physical appearance) ([1]; […] v/v PEG-300, carbonate buffer pH 10 (39 mM Na), 3 mg/mL, 1 h): cloudy
- Observations (physical appearance) ([1]; […] v/v PEG-300, carbonate buffer pH 10 (39 mM Na), 3 mg/mL, 2 h): cloudy
- Observations (physical appearance) ([1]; […] v/v PEG-300, carbonate buffer pH 10 (39 mM Na), 3 mg/mL, Initial): cloudy
- Observations (physical appearance) ([1]; […] v/v PEG-300, carbonate buffer pH 10 (39 mM Na), 3 mg/mL, Overnight): clear, yellow
- Observations (physical appearance) ([1]; […] v/v PEG-300, carbonate buffer pH 10 (39 mM Na), 4 mg/mL, 30 min): cloudy
- Observations (physical appearance) ([1]; […] v/v PEG-300, carbonate buffer pH 10 (39 mM Na), 4 mg/mL, 1 h): cloudy
- Observations (physical appearance) ([1]; […] v/v PEG-300, carbonate buffer pH 10 (39 mM Na), 4 mg/mL, 2 h): cloudy
- Observations (physical appearance) ([1]; […] v/v PEG-300, carbonate buffer pH 10 (39 mM Na), 4 mg/mL, Initial): cloudy
- Observations (physical appearance) ([1]; […] v/v PEG-300, carbonate buffer pH 10 (39 mM Na), 4 mg/mL, Overnight): clear, yellow
- Observations (physical appearance) ([1]; […] v/v PEG-300, carbonate buffer pH 10 (39 mM Na), 5 mg/mL, 30 min): cloudy
- Observations (physical appearance) ([1]; […] v/v PEG-300, carbonate buffer pH 10 (39 mM Na), 5 mg/mL, 1 h): cloudy
- Observations (physical appearance) ([1]; […] v/v PEG-300, carbonate buffer pH 10 (39 mM Na), 5 mg/mL, 2 h): cloudy
- Observations (physical appearance) ([1]; […] v/v PEG-300, carbonate buffer pH 10 (39 mM Na), 5 mg/mL, Initial): cloudy
- Observations (physical appearance) ([1]; […] v/v PEG-300, carbonate buffer pH 10 (39 mM Na), 5 mg/mL, Overnight): clear, yellow
- achievable drug concentration in solution ([1]; carbonate buffer pH about 10, high ionic strength, […] v/v tween 80 and 5% v/v DMSO): at least 5 mg/mL
- time to clear solution ([1]; high ionic strength carbonate buffer at pH 9.5, 5 mg/mL): ≤ 3 h
- physical appearance in lower pH carbonate buffers ([1]; pH 9.3 and pH 9.5, 5% v/v DMSO + […] v/v tween 80, 5 mg/mL): remain cloudy even after stirring overnight
- solubility thermodynamic [2]: ~44000 µg/mL (≈ 50000 µM)
- logP [3]: 4.69
- pKa [3]: 9.27
- Stability remark beside solubility ([3]; In water (pH = 11.8*)): not stable
- solubility ([3]; aqueous buffer, In water (pH = 9.7)): 33 µg/mL (≈ 37.5 µM)
- solubility ([3]; aqueous buffer, In water (pH = 11.8*)): 926 µg/mL (≈ 1050 µM)
- solubility ([3]; ethanol, organic solvent or mixture, In EtOH): 1560 µg/mL (≈ 1770 µM)
- solubility ([3]; organic solvent or mixture, In PEG300): 5640 µg/mL (≈ 6410 µM)
